Measured values reported in patent publication US5840729A (priority 1995, dated 1998).
pKi: −log10 of the molar value. Read-outs that look alike come from different tables or passages of the source. Blank lines part the entries; values can stand above or below the compound they belong to.

Columns and labels:
[1] = target: T1, adenosine A2 receptor (Rattus norvegicus, UniProt P30543); test: A2 receptor affinity: displacement of [3H]NECA binding in rat brain striatum membranes; details: Table 1
T1 construct: tissue Charles River (animals); host or cells: striatal membranes of young male rats (C-D strain)
T1 sequence (P30543 whole entry): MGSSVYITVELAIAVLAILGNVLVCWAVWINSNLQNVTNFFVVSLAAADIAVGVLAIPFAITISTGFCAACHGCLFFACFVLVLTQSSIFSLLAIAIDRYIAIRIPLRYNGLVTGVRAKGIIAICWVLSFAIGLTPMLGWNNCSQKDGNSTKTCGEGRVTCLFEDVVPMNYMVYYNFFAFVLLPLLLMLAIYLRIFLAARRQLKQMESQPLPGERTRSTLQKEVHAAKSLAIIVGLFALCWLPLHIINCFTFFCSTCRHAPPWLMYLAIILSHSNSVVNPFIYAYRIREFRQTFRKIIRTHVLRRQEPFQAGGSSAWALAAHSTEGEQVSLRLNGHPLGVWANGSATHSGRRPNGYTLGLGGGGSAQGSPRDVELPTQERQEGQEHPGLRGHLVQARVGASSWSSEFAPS
Protocol: See R. R. Bruns, et al., Characterization of the A-2Adenosine Receptor Labeled by [3H]NECA in Rat Striatal Membranes, Mol. Pharmacol., 29, 331-346 (1986). Young male rats (C-D strain), obtained from Charles River, were killed by decapitation and the brain was removed. Membranes for ligand binding were isolated from rat brain striatum. The tissue was homogenized in 20 vol ice-cold 50 mM Tris-HC1 buffer (pH 7.7) using a polytron (setting for 6 to 20 seconds). The homogenate was centrifuged at 50,000×g for 10 minutes at 4° C. The pellet was again homogenized in a polytron in 20 vol of buffer, and centrifuged as before. The pellet was finally resuspended in 40 vol of 50 mM Tris-HC1 (pH 7.7) per gram of original wet weight of tissue.
Incubations were carried out at 25° C. for 60 minutes. Each tube was filtered through GF/B glass fiber filters using a vacuum. The filters were rinsed two times with 5 ml of the ice-cold buffer. […] The filters were counted by liquid scintillation spectrometry.
Specific binding of [^3 H]NECA was measured as the excess over blanks run in the presence of 100 μM 2-chloroadenosine. Total membrane-bound radioactivity was about 2.5% of that added to the test tubes. […] Specific binding to membranes was about 50% of the total bound.

[2] = target: T2, adenosine A1 receptor (Rattus norvegicus, UniProt P25099)
T2 sequence (P25099 1-326): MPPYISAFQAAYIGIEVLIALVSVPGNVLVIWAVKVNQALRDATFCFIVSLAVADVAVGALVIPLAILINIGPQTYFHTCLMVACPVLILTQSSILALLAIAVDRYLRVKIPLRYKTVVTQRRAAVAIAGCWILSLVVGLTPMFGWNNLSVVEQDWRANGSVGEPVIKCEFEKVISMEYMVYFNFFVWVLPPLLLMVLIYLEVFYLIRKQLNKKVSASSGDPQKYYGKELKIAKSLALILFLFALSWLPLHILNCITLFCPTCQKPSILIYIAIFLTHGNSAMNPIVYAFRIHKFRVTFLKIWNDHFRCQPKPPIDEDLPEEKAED

[3] = target: T2, adenosine A1 receptor; test: biochemical
[4] = system: animal models of learning and memory; details: G. Schingnitz et al. 1991; cited from earlier work
[5] = system: rats; test: Water maze learning (scopolamine-induced impairment); format: in vivo, rat; details: for effect on scopolamine-induced learning impairment: water maze, summary statement; for reversal of scopolamine-induced impairment: scopolamine 1.2 mg/kg
Text: In the water maze spatial learning model, rats are required to use distal spatial cues around a circular water tank to navigate to a hidden platform.
Rats were trained in a 120 -cm diameter water-filled tank to locate a hidden platform submerged just below the surface of the water. The location of the platform remained constant, but for each trial, the animal was required to swim from one of three different starting locations around the edge of the tank. There were no proximal cues in the tank, so the animal had to use a spatial mapping strategy using the distal cues around the room to navigate to the hidden platform. A computerized video tracking system allowed automated acquisition of the data. The animals were given 12 successive training trials during the single training day, using the methods of O. Buresova, et al., Differential Effects Of Cholinergic Blockade On Performance Of Rats In The Water Tank Navigation Task And In A Radial Water Maze, Behavioral Neuroscience, 100, 476-482 (1986). […] After the animal found or was placed on the platform, it was allowed to stay there for 30 seconds. The next trial commenced immediately following the 30 second stay on the platform. Latency to locate the platform was recorded for each trial.
Separate treatment groups of five animals each were run in each experiment. The VEH--VEH groups received vehicle (distilled water plus Tween) i.p. 40 minutes prior to the first trial and vehicle i.p. 20 min. prior to the first trial. The VEH-SCOP groups received vehicle i.p. at 40 minutes and scopolamine HBr i.p. at 20 minutes. The MDL-SCOP groups received (R)-1,3-dipropyl-8-(1-phenylpropyl)-xanthine or 3,7-dihydro-8[(R)-1-methyl-2-phenylethyl]1,3-dipropyl-1H-purine-2,6-dione i.p. at 40 minutes and scopolamine HBr i.p. at 20 minutes.
The latency scores for each animal were averaged into four blocks of three trials each (one trial from each starting location). A one-way ANOVA comparing the treatment groups was computed on the scores for each trial block. If the overall ANOVA was statistically significant, comparisons between individual treatment groups were made with Fisher's PLSD test.

[6] = system: hippocampal CA1 neurons; test: Hippocampal long-term potentiation, in vitro slice (CA1 population spike); format: cell-based, male Sprague-Dawley rats; details: for LTP stabilized level following tetanus / time course of LTP following tetanus: primed burst tetanus; for population spike before and after induction of LTP: hippocampal CA1 neurons
Protocol: Slices were prepared from male Sprague-Dawley rats. […] Briefly, the hippocampus was rapidly and gently dissected over ice. 400 μ Sections were made with a […] tissue chopper and incubated on the interface of 34° C. […] A recording electrode was placed in the CA1 region of the hippocampus and a stimulating electrode was positioned in the stratum radiatum of the CA3 region of this same slice. […] The signal form the CA1 cell body layer was amplified, filtered (1 Hz-4 KHz), and monitored on an oscilloscope. The evoked waveform was also digitized using a Computerscope A/D board (RC Electronics, Inc., Santa Barbara, Calif.) and stored for analysis using Neuroscope software (Levin and Associates, Denver, Colo.) running on an IBM-AT. In order to insure the viability of the slice, "minimal viability criteria" were established. […] Only preparations that met these three criteria were used. Twenty or more control population spikes were obtained to establish a baseline (at least 10 minutes). In most slices concentrated drug solutions were then diluted into the media for a 20 minute period to establish effects on the baseline population spike. […] One 100 μsec pulse was followed by 4 similar pulses 170, 180, 190, 200 msec later. Drug superfusion was continuous throughout the experiment. […] The compounds were dissolved in DMSO and diluted 1:400 into the perfusion media. […] Each pop spike waveform was digitized, stored, and analyzed by the Neuroscope software. Pop spike amplitude was determined for each waveform and these amplitudes were normalized to pre-tetanus levels. Results were expressed as percent change from this control level and plotted vs. time.

[7] = system: A1 receptor; test: A1 receptor mediated decrease in heart rate produced by adenosine in the anesthetized guinea pig; format: in vivo
[8] = system: Type IV phosphodiesterase; test: Type IV phosphodiesterase activity; format: biochemical
[9] = system: isolated guinea pig trachea; test: Isolated guinea pig trachea, contraction produced by N6-cyclohexyl-adenosine; format: cell-based
[10] = system: Type III phosphodiesterase; test: Type III phosphodiesterase activity; format: biochemical
[11] = target: T2, adenosine A1 receptor; test: A1 receptor affinity: displacement of [3H]cyclohexyladenosine binding in rat brain membranes; details: Table 1; ratio of A2 Ki to A1 Ki (selectivity)
[12] = target: T2, adenosine A1 receptor; set-up: Male Sprague-Dawley rats were sacrificed by decapitation and the membranes were isolated from whole animal brains; from tissue; host or cells: whole brain membranes of male Sprague-Dawley rats; details: Dudley et al., 1992; Secrest et al.; cited from earlier work

Structure (SMILES): CCCn1c(=O)c2[nH]c([C@@H](CC)c3ccccc3)nc2n(CCC)c1=O [3,7-Dihydro-8-[(S)-1-phenylpropyl]1,3-dipropyl-1H-purine-2,6-dione]
pKi [1]: 6.07
A2/A1 [2]: 14
pKi [3]: 7.22

Structure (SMILES): CCCn1c(=O)c2[nH]c(C3CCC(=O)C3)nc2n(CCC)c1=O (racemic) [KFM-19, reference compound]
activity in other animal models of learning and memory [4]: reported to have activity
effect on scopolamine-induced learning impairment [5]: significantly antagonized
synaptic transmission in the hippocampal slice [6]: enhanced synaptic transmission

pKi [1]: 5.08
Structure (SMILES): CCCn1c(=O)c2[nH]c(C3Cc4ccccc4C3)nc2n(CCC)c1=O (racemic) [3,7-Dihydro-8-(2-indanyl)-1,3-dipropyl-1H-purine-2,6-dione]

pKi [1]: 5.31
Structure (SMILES): CCCn1c(=O)c2nc(C(C)c3ccccc3)[nH]c2n(CCC)c1=O (racemic) [3,7-dihydro-8-(1-phenylethyl)-1,3-dipropyl-1H-purine-2,6-dione]

pKi [1]: 5.37
Structure (SMILES): CCCn1c(=O)c2nc([C@H](C)c3ccccc3)[nH]c2n(CCC)c1=O [3,7-Dihydro-8-[(R)-1-phenylethyl]-1,3-dipropyl-1H-purine-2,6-dione]

pKi [1]: 4.89
Structure (SMILES): CCCn1c(=O)c2nc(C(CO)Cc3ccccc3)[nH]c2n(CCC)c1=O (racemic) [3,7-dihydro-8-[l-(hydroxymethyl)-2-phenylethyl]-1,3-dipropyl-1H-purine-2,6-dione]

pKi [1]: 5.91
Structure (SMILES): CCCn1c(=O)c2nc(C(CC)Cc3ccccc3)[nH]c2n(CCC)c1=O (racemic) [3,7-dihydro-8-[1-(phenylmethyl)propyl]-1,3-dipropyl-1H-purine-2,6-dione]

Structure (SMILES): CCCn1c(=O)c2[nH]c(C(CC)c3ccccc3)nc2n(CCC)c1=O (racemic) [3,7-dihydro-8-[(±)-phenylpropyl]-1,3-dipropyl-1H-purine-2,6-dione]
A2/A1 [2]: 20

effect on Type IV phosphodiesterase activity [8]: little effect
effect on Type III phosphodiesterase activity [10]: little effect
Structure (SMILES): CCCn1c(=O)c2[nH]c([C@H](C)Cc3ccccc3)nc2n(CCC)c1=O [3,7-Dihydro-8-[(R)-1-methyl-2-phenylethyl]-1,3-dipropyl-1H-purine-2,6-dione]
difference from VEH-VEH group (latency) ([5]; 25 mg/kg i.p. plus scopolamine […]): did not differ significantly from the VEH--VEH group
reversal of scopolamine-induced impairment of water maze learning ([5]; 25 mg/kg i.p., scopolamine […]): partially reversed
effect on scopolamine-induced learning impairment [5]: significantly antagonized
reversal of A1 receptor mediated decrease in heart rate produced by adenosine [7]: completely reversed
effect on contraction produced by N6-cyclohexyl-adenosine [9]: very little effect
synaptic transmission in the hippocampal slice [6]: enhanced synaptic transmission
LTP stabilized level following tetanus ([6]; 5 μM): 216%
population spike before and after induction of LTP [6]: increased the basal population spike before and after induction of LTP
time course of LTP following tetanus [6]: rose sharply and remained stable throughout the observation period

Structure (SMILES): CCCn1c(=O)c2[nH]c([C@H](CC)c3ccccc3)nc2n(CCC)c1=O [3,7-dihydro-8-[(R)-1-phenylpropyl]1,3-dipropyl-1H-purine-2,6-dione]
A2/A1 [11]: 153
pKi [1]: 5.45
pKi [2]: 7.63
difference from VEH-SCOP group (latency), block 3 ([5]; 5 mg/kg i.p. plus scopolamine 1.2 mg/kg, p<0.05): differed from the VEH-SCOP group on block 3 (p<0.05)
reversal of scopolamine-induced impairment ([5]; 5 mg/kg i.p.): reversed the scopolamine-induced impairment
difference from VEH-SCOP group (latency), blocks 2 and 3 ([5]; 25 mg/kg i.p. plus scopolamine 1.2 mg/kg): differed from the VEH-SCOP group on blocks 2 and 3
reversal of scopolamine-induced impairment ([5]; 25 mg/kg i.p.): reversed the scopolamine-induced impairment
difference from VEH-VEH group (latency) ([5]; 5 and 25 mg/kg i.p. plus scopolamine 1.2 mg/kg): did not differ significantly from the VEH--VEH group
effect on scopolamine-induced learning impairment [5]: significantly antagonized
synaptic transmission in the hippocampal slice [6]: enhanced synaptic transmission
LTP stabilized level following tetanus ([6]; 2.5 μm): 270%
population spike before and after induction of LTP [6]: increased the basal population spike before and after induction of LTP
time course of LTP following tetanus [6]: rose sharply and remained stable throughout the observation period
A1 antagonist potency and selectivity [12]: potent and selective A1 antagonists

Structure (SMILES): CN1[C@@H]2C[C@@H](OC(=O)[C@H](CO)c3ccccc3)C[C@H]1[C@@H]1O[C@@H]12 [scopolamine, reference compound]
VEH-SCOP group versus VEH-VEH group (latency) ([5]; scopolamine 1.2 mg/kg i.p., p<0.05): differed significantly from the VEH--VEH group (p<0.05)
impairment of acquisition of the water maze task ([5]; scopolamine, dose-dependent): dose-dependently impairs acquisition of the water maze task

pKi [1]: 4.89
Structure (SMILES): CCCn1c(=O)c2nc([C@@H](C)c3ccccc3)[nH]c2n(CCC)c1=O [3,7-Dihydro-8-[(S)-1-phenylethyl]-1,3-dipropyl-1H-purine-2,6-dione]
